Data as given in US11780821B2, “Inhibitors of fibroblast activation protein” (Praxis Biotech LLC, priority 2017, dated 2023).
Where two headings read alike, the source gives them in different places.

Tests used:
[1] = molecular target: T1, circulating FAPα from hamster plasma (Mesocricetus auratus, UniProt A0ABM2XF29); assay: Ex vivo inhibition of circulating FAPα activity from hamster plasma; type: biochemical, Golden Syrian hamster
T1 sequence (A0ABM2XF29 24-761): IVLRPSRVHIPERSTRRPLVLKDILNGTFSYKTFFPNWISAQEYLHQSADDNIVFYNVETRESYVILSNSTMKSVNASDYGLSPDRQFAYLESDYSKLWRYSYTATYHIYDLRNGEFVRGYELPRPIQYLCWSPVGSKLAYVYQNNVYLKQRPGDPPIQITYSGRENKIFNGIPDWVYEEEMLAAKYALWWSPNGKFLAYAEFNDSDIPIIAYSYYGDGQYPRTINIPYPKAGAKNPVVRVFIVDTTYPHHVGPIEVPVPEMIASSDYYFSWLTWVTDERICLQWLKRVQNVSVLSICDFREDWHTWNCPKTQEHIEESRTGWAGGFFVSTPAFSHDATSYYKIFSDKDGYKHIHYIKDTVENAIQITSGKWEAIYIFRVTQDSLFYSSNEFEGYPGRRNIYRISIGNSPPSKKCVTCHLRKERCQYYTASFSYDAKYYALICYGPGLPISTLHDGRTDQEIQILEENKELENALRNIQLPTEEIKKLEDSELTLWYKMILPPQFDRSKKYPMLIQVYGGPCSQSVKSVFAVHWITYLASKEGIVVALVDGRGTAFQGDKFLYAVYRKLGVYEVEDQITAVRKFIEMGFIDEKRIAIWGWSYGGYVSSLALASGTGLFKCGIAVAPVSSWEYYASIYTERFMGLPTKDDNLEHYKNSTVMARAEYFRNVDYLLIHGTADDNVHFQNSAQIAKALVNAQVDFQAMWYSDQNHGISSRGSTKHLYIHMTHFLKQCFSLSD
Experimental: Male Golden Syrian hamsters were provided by National Laboratory Animal Center (NLAC) in Taiwan. The animals were maintained in a hygienic environment under controlled temperature (20-24° C.) and humidity (50%-80%) with 12 hours light/dark cycles. Free access to standard lab diet [MFG (Oriental Yeast Co., Ltd. Japan)] and autoclaved tap water were granted. All aspects of this work including housing, experimentation and disposal of animals were performed in general accordance with the “Guide for the Care and Use of Laboratory Animals: Eighth Edition” (National Academies Press, Washington, D.C., 2011). In addition, the animal care and use protocol was reviewed and approved by the IACUC at Pharmacology Discovery Services Taiwan, Ltd. Immediately after the sacrifice of hamsters, blood samples were collected via terminal cardiac puncture in tubes coated with EDTA-K2, mixed gently, then kept on ice and centrifuged at 2,500×g for 15 minutes at 4° C. After plasma separation, samples were stored at −80° C. in aliquots of 300 μL.
To assay exemplary compounds in hamster plasma, a similar protocol as described for human plasma was performed diluting thawed plasma 1:2 in cFAP buffer. In a 96-well black plate, 5 μl of diluted hamster plasma were mixed with 35 μl of the same buffer and 10 μl of exemplary test compounds at different concentrations or vehicle (DMSO).
Exemplary test compounds were allowed to interact with the enzyme for 15 minutes at 37° C. After pre-incubation, 50 μl of 200 μM PRXS-AMC substrate were added to the all mixtures. All reactions were carried out for 1 h at 37° C. protected from light. AMC release was detected measuring fluorescence at an excitation/emission wavelength of 380/460 nm using a Multifunction Microplate Reader. All measurements were carried out as single point.

[2] = molecular target: T2, recombinant mouse FAPα (rmFAPα) (Mus musculus, UniProt P97321); assay: FAPα enzymatic exopeptidase (dipeptidase) activity assay; type: biochemical; details: exopeptidase, read-out: rmFAPα (exo IC50)
T2 construct: purchased R&S system (so in the source)
T2 sequence (P97321 1-761): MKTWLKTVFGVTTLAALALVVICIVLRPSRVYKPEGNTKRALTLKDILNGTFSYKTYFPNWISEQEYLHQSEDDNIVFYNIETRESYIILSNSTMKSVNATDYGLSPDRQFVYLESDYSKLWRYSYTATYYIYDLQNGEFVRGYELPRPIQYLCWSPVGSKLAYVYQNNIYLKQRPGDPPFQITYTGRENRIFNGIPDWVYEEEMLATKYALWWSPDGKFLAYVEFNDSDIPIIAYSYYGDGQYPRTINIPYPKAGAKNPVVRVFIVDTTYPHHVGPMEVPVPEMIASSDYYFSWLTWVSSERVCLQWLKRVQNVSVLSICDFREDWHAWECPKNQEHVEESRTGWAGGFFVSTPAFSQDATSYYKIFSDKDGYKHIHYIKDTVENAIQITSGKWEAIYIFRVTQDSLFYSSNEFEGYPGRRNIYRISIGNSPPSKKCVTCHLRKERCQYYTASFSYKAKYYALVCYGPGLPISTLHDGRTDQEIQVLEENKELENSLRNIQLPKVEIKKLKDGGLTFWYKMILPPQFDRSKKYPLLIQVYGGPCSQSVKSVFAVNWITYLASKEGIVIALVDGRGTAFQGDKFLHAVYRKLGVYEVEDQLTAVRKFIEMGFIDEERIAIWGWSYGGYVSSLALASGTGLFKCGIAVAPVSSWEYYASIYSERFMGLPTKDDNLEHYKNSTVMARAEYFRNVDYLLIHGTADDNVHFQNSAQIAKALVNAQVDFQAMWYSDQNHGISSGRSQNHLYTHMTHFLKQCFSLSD

[3] = molecular target: T3, recombinant mouse DPPIV (rmDPPIV) (Mus musculus, UniProt P28843); assay: DPPIV enzymatic activity assay; type: biochemical; details: H-Gly-Pro-pNA substrate
T3 construct: purchased R&S system (so in the source)

[4] = molecular target: T4, recombinant mouse PREP (rmPREP) (Mus musculus, UniProt Q9QUR6); assay: PREP enzymatic activity assay; type: biochemical; details: Z-Gly-Pro-AMC substrate
T4 construct: purchased R&S system (so in the source)
Experimental: 7-Amino-4-Methylcoumarin (AMC) release was detected by measuring fluorescence at Ex/Em 380/460 nm using a Multifunction Microplate Reader (Synergy 4, Biotek). All measurements were carried out in triplicate.

[5] = PRXS-AMC substrate, read-out: FAPα activity in hamster plasma (PRXS-AMC) IC50
[6] = read-out: FAPα activity in hamster plasma (PRXS-AMC) IC50, PRXS-AMC substrate

T4 sequence (Q9QUR6 whole entry): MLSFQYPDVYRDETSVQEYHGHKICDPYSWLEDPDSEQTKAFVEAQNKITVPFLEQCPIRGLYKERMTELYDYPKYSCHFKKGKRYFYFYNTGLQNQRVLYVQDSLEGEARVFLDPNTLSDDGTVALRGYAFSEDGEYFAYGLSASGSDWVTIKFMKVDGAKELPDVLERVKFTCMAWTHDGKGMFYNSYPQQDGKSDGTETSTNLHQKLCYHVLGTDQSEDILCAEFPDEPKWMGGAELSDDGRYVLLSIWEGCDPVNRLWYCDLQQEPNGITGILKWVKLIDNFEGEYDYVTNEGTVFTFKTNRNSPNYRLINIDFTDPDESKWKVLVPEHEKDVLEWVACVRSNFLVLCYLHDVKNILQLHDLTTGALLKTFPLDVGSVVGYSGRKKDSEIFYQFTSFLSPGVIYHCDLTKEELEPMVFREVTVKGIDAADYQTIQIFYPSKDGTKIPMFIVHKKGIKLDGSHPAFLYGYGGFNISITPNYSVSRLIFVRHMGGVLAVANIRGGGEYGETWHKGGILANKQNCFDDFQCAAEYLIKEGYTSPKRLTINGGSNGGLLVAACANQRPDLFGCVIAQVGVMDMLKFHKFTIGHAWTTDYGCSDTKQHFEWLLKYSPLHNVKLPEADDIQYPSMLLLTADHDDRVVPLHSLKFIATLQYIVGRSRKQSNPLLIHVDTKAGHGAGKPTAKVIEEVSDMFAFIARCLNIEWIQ
T3 sequence (P28843 whole entry): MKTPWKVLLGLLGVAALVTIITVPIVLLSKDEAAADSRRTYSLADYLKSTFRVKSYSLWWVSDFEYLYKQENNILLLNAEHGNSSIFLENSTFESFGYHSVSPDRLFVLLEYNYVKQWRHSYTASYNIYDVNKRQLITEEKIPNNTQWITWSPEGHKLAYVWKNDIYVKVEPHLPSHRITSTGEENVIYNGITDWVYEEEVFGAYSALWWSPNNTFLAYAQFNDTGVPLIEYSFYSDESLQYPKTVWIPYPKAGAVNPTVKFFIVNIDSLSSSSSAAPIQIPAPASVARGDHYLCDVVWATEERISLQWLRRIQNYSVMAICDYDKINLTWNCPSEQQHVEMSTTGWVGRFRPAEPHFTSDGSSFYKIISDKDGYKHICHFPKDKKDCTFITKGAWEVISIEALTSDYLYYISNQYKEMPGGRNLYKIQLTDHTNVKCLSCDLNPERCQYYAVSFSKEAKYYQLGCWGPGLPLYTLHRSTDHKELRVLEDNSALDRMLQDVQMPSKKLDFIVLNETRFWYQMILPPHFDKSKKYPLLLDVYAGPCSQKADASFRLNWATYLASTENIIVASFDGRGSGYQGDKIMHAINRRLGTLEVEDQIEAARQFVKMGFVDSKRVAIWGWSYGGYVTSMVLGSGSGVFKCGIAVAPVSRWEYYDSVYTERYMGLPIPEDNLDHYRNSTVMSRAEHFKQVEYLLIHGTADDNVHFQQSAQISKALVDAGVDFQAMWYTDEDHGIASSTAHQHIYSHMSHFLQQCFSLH

IC50 [3] | IC50 [4] | Structure (SMILES) | IC50 [1, 5] | IC50 ([2]; Table 3) | IC50 [1, 6] | IC50 ([2]; Table 2, Z-Gly-Pro-AMC)
– | – | N#C[C@@H]1CC(F)(F)CN1C(=O)CNC(=O)c1c[nH]c(=O)cc1-c1ccc(F)cc1 [Compound 109, (S)—N-(2-(2-cyano-4,4-difluoropyrrolidin-1-yl)-2-oxoethyl)-4-(4-fluorophenyl)-6-oxo-1,6-dihydropyridine-3-carboxamide] | < 1 µM | – | – | –
– | – | N#C[C@@H]1CC(F)(F)CN1C(=O)CNC(=O)c1ccncc1N1CCOCC1 [Compound 88, N-[2-[(2S)-2-cyano-4,4-difluoro-pyrrolidin-1-yl]-2-oxo-ethyl]-3-morpholino-pyridine-4-carboxamide] | – | < 1 µM | – | –
– | – | N#C[C@@H]1CC(F)(F)CN1C(=O)CNC(=O)c1ccncc1C1=CCNCC1 [Compound 105, (S)—N-(2-(2-cyano-4,4-difluoropyrrolidin-1-yl)-2-oxoethyl)-1′,2′,3′,6′-tetrahydro-[3,4′-bipyridine]-4-carboxamide 2,2,2-trifluoroacetate] | – | – | < 1 µM | –
– | – | N#C[C@@H]1CC(F)(F)CN1C(=O)CNC(=O)c1ccncc1C1CC1 [Compound 24, (S)—N-(2-(2-cyano-4,4-difluoropyrrolidin-1-yl)-2-oxoethyl)-3-cyclopropylisonicotinamide] | – | < 1 µM | < 1 µM | < 1 µM
– | – | C=C(c1ccccc1)c1cnccc1C(=O)NCC(=O)N1CC(F)(F)C[C@H]1C#N [Compound 122, (S)—N-(2-(2-cyano-4,4-difluoropyrrolidin-1-yl)-2-oxoethyl)-3-(1-phenylvinyl)isonicotinamide] | < 1 µM | – | – | –
– | – | N#C[C@@H]1CC(F)(F)CN1C(=O)CNC(=O)c1ccncc1-c1ccc(F)cc1 [Compound 52, (S)—N-(2-(2-cyano-4,4-difluoropyrrolidin-1-yl)-2-oxoethyl)-3-(4-fluorophenyl)isonicotinamide] | – | < 1 µM | < 1 µM | < 1 µM
1 to 10 µM | 1 to 10 µM | N#C[C@@H]1CC(F)(F)CN1C(=O)CNC(=O)c1c[nH]c(=O)c2ccccc12 [Example 1, (S)—N-(2-(2-cyano-4,4-difluoropyrrolidin-1-yl)-2-oxoethyl)-1-oxo-1,2-dihydroisoquinoline-4-carboxamide] | – | < 1 µM | – | < 1 µM
> 10 µM | > 10 µM | N#C[C@@H]1CC(F)(F)CN1C(=O)CNC(=O)c1c[nH]c(=O)c(-c2ccccc2)c1 [Compound 14, (S)—N-(2-(2-cyano-4,4-difluoropyrrolidin-1-yl)-2-oxoethyl)-6-oxo-5-phenyl-1,6-dihydropyridine-3-carboxamide] | – | – | – | –

Structure (SMILES) | IC50 [3] | IC50 [4] | IC50 [1, 5] | IC50 ([2]; Table 3) | IC50 [1, 6] | IC50 ([2]; Table 2, Z-Gly-Pro-AMC)
N#C[C@@H]1CC(F)(F)CN1C(=O)CNC(=O)c1ccncc1-c1ccccc1 [Compound 13, (S)—N-(2-(2-cyano-4,4-difluoropyrrolidin-1-yl)-2-oxoethyl)-3-phenylisonicotinamide] | > 10 µM | > 10 µM | – | < 1 µM | < 1 µM | < 1 µM
